Assay results from US9233965B2, “3,4-dihydropyrrolo[1,2-A]pyrazine-2,8(1H)-dicarboxamide derivatives, preparation thereof and therapeutic use thereof for diseases involving casein kinase 1 epsilon and/or casein kinase 1 delta” (SANOFI, priority 2010, dated 2016).
Values joined by “and” are separate entries in the source; they are usually repeats but may differ in a detail not shown here. Equal values may be shown once.

Key:
[1] = molecular target: casein kinase 1 epsilon (CK1 epsilon) (Homo sapiens (Human), UniProt P49674); experiment: Test A: inhibitory activity on CK1 epsilon, casein phosphorylation assay on ATP-33P filter plate; assay type: biochemical; conditions: IC50 values or IC50 ranges (result of several experiments), ATP 10 μM final
Summary of the method: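 Human CK1 epsilon (3 ng/μL final) phosphorylates dephosphorylated casein (0.2 μg/μL) with ATP-33P plus 10 μM cold ATP (KM for ATP 21 μM), 2 h at room temperature, pH 7.5 Tris buffer. TCA-precipitated protein counted by scintillation; compounds at 10 to 0.001 μM give IC50 values or % inhibition at 10 μM.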

[2] = system: Mper1-luc Rat-1 (P2C4) fibroblasts; experiment: Test C: circadian cell assay, mPer1-luciferase reporter period analysis; assay type: cell-based; conditions: effective concentration that induces a 1-hour prolongation of the circadian period; values or ranges from several experiments
Procedure: Test C: Experimental Protocol for Circadian Cell Assay
Mper1-luc Rat-1 (P2C4) fibroblast cultures were prepared by dividing the cultures every 3-4 days (about 10-20% of confluence) on 150 cm^2 degassed polystyrene tissue culture flasks (Falcon® #35-5001) and maintained in growth medium [EMEM (Cellgro #10-010-CV); 10% foetal bovine serum (FBS; Gibco #16000-044); and 50 I.U./mL of penicillin-streptomycin (Cellgro #30-001-Cl)] at 37° C. and under 5% CO2.
Cells obtained from Rat-1 fibroblast cultures at 30-50% of confluence as described above were co-transfected with vectors containing the selection marker for resistance to zeocin for a stable transfection and a luciferase reporter gene directed by the promoter mPer-1. After 24 to 48 hours, the cultures were divided on 96-well plates and maintained in growth medium supplemented with 50-100 μg/mL of zeocin (Invitrogen® #45-0430) for 10-14 days. The zeocin-resistant stable transfectants were evaluated for expression of the reporter by adding to the growth medium luciferin 100 μM (Promega® #E1603®) and by assaying the luciferase activity on a TopCount® scintillation counter (Packard model #C384V00). The Rat-1 cell clones expressing both zeocin resistance and luciferase activity directed by mPer1 were serum-shock-synchronized with 50% horse serum [HS (Gibco® #16050-122)] and the activity of the circadian reporter was evaluated. The P2C4 clone of fibroblasts Mper1-luc Rat-1 was selected to test the compound.
The Mper1-luc Rat-1 (P2C4) fibroblasts at 40-50% of confluence obtained according to the protocol described above were plated out onto 96-well opaque tissue culture plates (Perkin Elmer® #6005680). The cultures are maintained in growth medium supplemented with 100 μg/mL of zeocin (Invitrogen #45-0430) until they reached 100% of confluence (48-72 hours). The cultures were then synchronized with 100 μL of synchronization medium [EMEM (Cellgro #10-010-CV); 100 I.U./mL of penicillin-streptomycin (Cellgro #30-001-C1); 50% HS (Gibco #16050-122)] for 2 hours at 37° C. and under 5% CO2. After synchronization, the cultures were rinsed with 100 μL of EMEM (Cellgro #10-010-CV) for 10 minutes at room temperature. […]
The period analysis was performed either by determining the interval between the relative light emission minima over several days or by Fourier transform. […] The data were analysed by adjusting a hyperbolic curve to the data expressed as change of period (y-axis) as a function of the concentration of the test compound (x-axis) in the XLfit™ software and the EC Delta (t+1 h) was interpolated from this curve. […]

[3] = molecular target: human CK1 delta (Homo sapiens (Human), UniProt P48730); experiment: Test B: inhibitory activity on CK1 delta measured by FRET (Z'Lyte kinase assay kit); assay type: biochemical; conditions: substrate peptide SER/THR 11 2 μM, ATP 4 times the KM
From the text: Test B: Inhibitory Activity on CK1 Delta Measured by FRET
The capacity of the compounds of the invention to inhibit the phosphorylation of casein by the casein kinases 1 epsilon and delta may be evaluated using an FRET (Fluorescence Resonance Energy Transfer) fluorescence test with the aid of the “Z'Lyte™ kinase assay kit” (reference PV3670; Invitrogen Corporation™) according to the manufacturer's instructions.
The casein kinases 1 used are obtained from Invitrogen Corporation (human CK1 epsilon PV3500 and human CK1 delta PV3665).
A peptide substrate labelled at both ends with a fluorophore-donating group (coumarin) and a fluorophore-accepting group (fluorescein) constituting an FRET system is […] in the presence of ATP by casein kinase 1 epsilon or delta in the presence of increasing concentrations of compounds of the invention.
The mixture is treated with a site-specific protease that specifically cleaves the substrate peptide to form two fluorescent fragments having a large fluorescence emission ratio.
The fluorescence observed is thus related to the capacity of the products of the invention to inhibit the phosphorylation of the substrate peptide by casein kinase 1 epsilon or casein kinase 1 delta. […]
The emitted fluorescence is measured at wavelengths of 445 and 520 nm (excitation at 400 nm). […]

Chain of casein kinase 1 epsilon (CK1 epsilon) (P49674 whole entry): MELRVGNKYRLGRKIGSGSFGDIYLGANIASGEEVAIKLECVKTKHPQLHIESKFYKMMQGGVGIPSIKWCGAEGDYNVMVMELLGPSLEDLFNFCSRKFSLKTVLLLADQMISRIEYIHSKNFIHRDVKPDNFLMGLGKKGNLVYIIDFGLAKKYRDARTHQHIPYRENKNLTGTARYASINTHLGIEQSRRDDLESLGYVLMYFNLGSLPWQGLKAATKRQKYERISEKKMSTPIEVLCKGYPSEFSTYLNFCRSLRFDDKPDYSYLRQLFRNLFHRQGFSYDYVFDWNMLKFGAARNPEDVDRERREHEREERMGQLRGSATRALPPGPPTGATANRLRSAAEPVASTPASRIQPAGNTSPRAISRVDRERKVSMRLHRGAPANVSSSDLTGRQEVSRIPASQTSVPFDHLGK
Chain of human CK1 delta (P48730 whole entry): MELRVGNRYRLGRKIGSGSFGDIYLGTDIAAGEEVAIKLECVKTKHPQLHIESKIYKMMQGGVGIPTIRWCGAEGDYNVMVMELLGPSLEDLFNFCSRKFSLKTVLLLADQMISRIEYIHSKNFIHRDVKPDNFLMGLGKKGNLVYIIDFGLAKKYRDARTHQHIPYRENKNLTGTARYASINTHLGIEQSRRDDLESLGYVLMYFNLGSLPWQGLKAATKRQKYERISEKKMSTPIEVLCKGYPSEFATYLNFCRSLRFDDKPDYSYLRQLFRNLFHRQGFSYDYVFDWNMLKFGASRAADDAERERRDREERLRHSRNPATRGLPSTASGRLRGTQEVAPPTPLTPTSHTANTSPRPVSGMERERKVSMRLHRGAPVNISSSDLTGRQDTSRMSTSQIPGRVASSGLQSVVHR

NC(=O)c1c(-c2ccccc2)c(C2CC2)n2c1CN(C(=O)NC13CC4CC(CC(C4)C1)C3)CC2 [Compound 54, N^2-(adamantan-1-yl)-6-cyclo-propyl-7-phenyl-3,4-dihydropyrrolo[1,2-a]pyrazine-2,8(1H)-dicarboxamide]
IC50 [1]: 6 nM
CE Delta (t + 1 h) [2]: 15 nM

CC(C)(C)NC(=O)N1CCn2c(c(C(N)=O)c(-c3ccc4ccccc4c3)c2C2CC2)C1 [Compound 25, N^2-tert-butyl-6-cyclo-propyl-7-(naphthalen-2-yl)-3,4-dihydropyrrolo[1,2-a]pyrazine-2,8(1H)-dicarboxamide]
IC50 [1]: 33 nM
CE Delta (t + 1 h) [2]: 26 nM

CC(C)(C)NC(=O)N1CCn2c(Cl)c(-c3ccccc3)c(C(N)=O)c2C1 [Compound 60, N^2-tert-butyl-6-chloro-7-phenyl-3,4-dihydropyrrolo[1,2-a]pyrazine-2,8(1H)-dicarboxamide]
melting point: 197 to 199 °C and 192 to 195 °C
IC50 [1]: 1 to 12 nM
CE Delta (t + 1 h) [2]: 3 to 20 nM

Cc1c(-c2ccccc2)c(C(N)=O)c2n1CCN(C(=O)NC(C)(C)C)C2 [Compound 3, N^2-tert-butyl-6-methyl-7-phenyl-3,4-dihydropyrrolo[1,2-a]pyrazine-2,8(1H)-dicarboxamide]
IC50 [1]: 5 to 104 nM
CE Delta (t + 1 h) [2]: 8 nM

CC(C)(C)NC(=O)N1CCn2c(c(C(N)=O)c(-c3ccccc3)c2C2CC2)C1 [Compound 10, N^2-tert-butyl-6-cyclo-propyl-7-phenyl-3,4-dihydropyrrolo[1,2-a]pyrazine-2,8(1H)-dicarboxamide]
IC50 [1]: 15 to 77 nM
IC50 [3]: 31 nM
